From patent US20260207668A1, “MANIPULATION OF ADRENERGIC RECEPTORS TO INFLUENCE IMMUNE CELL DIFFERENTIATION AND FUNCTION” (Salk Institute for Biological Studies, priority 2022, published 2026)

Columns and labels:
PDAC tumors = assay: Orthotopic PDAC (6419c5) in mice, beta-blocker alone or with ICB; format: in vivo; settings: for tumor growth: agent alone; for tumor growth (abdominal ultrasound volume and tumor mass): in combination with ICB (anti-PD-1 + anti-CTLA-4)
YUMMER1.7 melanomas = assay: YUMMER1.7 melanoma in mice, beta-blocker alone or with ICB; format: in vivo; settings: for cytokine production by CD8+ T cells: combination with ICB, tumor CD8+ T cells stimulated with PMA/ionomycin
LCMV-clone 13 = format: in vivo, mice
ADRB1 vs. ADRB2 = settings: relative to β1; cited from earlier work
ADRB1 = ADRB1 (Mus musculus, UniProt P34971); set-up: dose or concentration left out as unconfirmed; settings: Adrb1 OE P14+ cells vs empty vector; for CD8+ T cell cytokine production: gp33 stimulation; for CD8+ T cell proliferation: up to 6 days of culture
ADRB1, sequence (P34971 whole entry): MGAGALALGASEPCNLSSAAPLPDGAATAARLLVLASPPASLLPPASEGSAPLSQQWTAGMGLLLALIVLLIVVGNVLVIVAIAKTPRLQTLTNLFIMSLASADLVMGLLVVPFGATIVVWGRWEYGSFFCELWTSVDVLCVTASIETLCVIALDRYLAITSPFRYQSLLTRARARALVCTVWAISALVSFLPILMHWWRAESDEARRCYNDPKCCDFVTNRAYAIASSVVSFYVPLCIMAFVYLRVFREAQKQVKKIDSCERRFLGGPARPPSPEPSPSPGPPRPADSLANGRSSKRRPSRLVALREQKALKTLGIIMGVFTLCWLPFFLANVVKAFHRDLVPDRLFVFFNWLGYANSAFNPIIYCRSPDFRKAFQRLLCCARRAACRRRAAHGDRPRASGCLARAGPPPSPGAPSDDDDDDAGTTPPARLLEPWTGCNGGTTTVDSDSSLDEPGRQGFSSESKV

[1] = system: CD8+ T cells in PDAC tumors; assay: scRNA Seq of tumor infiltrating T cells from PDAC tumors; format: in vivo, mice
Experimental: For scRNA Seq of PDAC tumors 4 tumors each per treatment condition were pooled and stained for sorting. The following cell populations were sorted into RPMI supplemented with 20% fetal bovine serum: Thy1.2^+ CD45.2^+ (T cells), Thy1.2^− CD45.2^+ (Non T cell leukocytes), YFP^+ CD45.2^− (tumor cells). Sorted cells were spun down at 420 rcf at 4° C. for 4 minutes, resuspended in PBS+2% fetal bovine serum and mixed at 8 k Thy1.2^+ CD45.2^+, 10 k Thy1.2^− CD45.2^+, 2 k YFP^+ CD45.2^− for a total of 20 k cells per sample.
Samples were then loaded onto Chromium Chip G (10× Genomics) and partitioned into Gel Bead-in-Emulsions using a chromium controller (10× Genomics). Single cell RNA libraries were generated following the manufacturer's instructions of the Chromium Next GEM Single Cell 3′ Reagent Kit v3.1 (10× Genomics) followed by sequencing on a NovaSeq6000 at the NGS Core of the Salk Institute. Cellranger count was used to align reads to the mm10 genome and YFP. The resulting counts matrix was then processed using the R package scran^54 and outlying cells identified with quickPerCellQC (stats, percent_subsets=“subsets_Mito_percent”) were discarded. Data was log normalized using quickCluster, computeSumFactors and logNormCounts. The top 10% most variable genes were calculated using modelGeneVarByPoisson and getTopHVGs and then used in the PCA calculation using denoisePCA. The top 50 principal components were used to calculate a UMAP dimensional reduction using the runUMAP function (metric=“cosine”, min_dist=0.3 and n_neighbors=30). Leiden clustering was performed with igraph's cluster_leiden (with resolution=0.05) after running buildSNNGraph (with k=25). Cell types were annotated using SingleR^55 and the ImmGenData labels as a reference using default parameters. For further analysis the dataset was filtered on T cells according to the SingleR labels and variable genes, PCA and UMAP were calculated with the same settings described above. Clustering of T cells was performed using cluster_leiden with the resolution set to 1.8. For visualization, data imputation was performed using MAGIC^56 using the exact solver. To assign biological relevance to the T cell clusters, a heatmap of the median log normalized expression (using aggregateAcrossCells) of selected markers was generated and visualized using ComplexHeatmap^57. Differential genes for the clusters were identified by performing pairwise comparison of one cluster against all other clusters using the findMarkers function (test.type=“binom”, lfc=0.1, direction=“up”). Gene signatures for T cell exhaustion and TRn cells were obtained from Wherry et al and Milner et al respectively^45,58 in addition to the MSigDB hallmark gene sets. Gene signature scores were calculated using AUCell^59 (aucMaxRank set to 5%). […]

[2] = gp33+ CD8+ T cells, d37 p.i., vs untreated

Compound: Cc1ccc(OCC(O)C(C)NC(C)C)c2c1CCC2 (stereo not shown) [ICI 11855135]
- tumor growth (PDAC tumors): failed to suppress tumor growth
- tumor growth (abdominal ultrasound volume and tumor mass) (PDAC tumors): failed to suppress tumor growth

Compound: CC(C)NCC(O)COc1ccc(CC(N)=O)cc1 (stereo not shown) [atenolol]
- tumor growth (PDAC tumors): failed to suppress tumor growth
- tumor growth (abdominal ultrasound volume and tumor mass) (PDAC tumors): failed to suppress tumor growth
- tumor cell proliferation (tumor expression of Ki67 relative to IgG, IHC) (YUMMER1.7 melanomas; beta-blocker alone vs IgG, YUMMER tumors): does not directly affect tumor cell proliferation
- effects on differentiation of exhausted T cells (YUMMER1.7 melanomas; combination with ICB (anti-PD-1 + anti-CTLA-4)): did not extend beyond those of the checkpoint therapy alone
- tumor size (normalized tumor mass relative to IgG control) (YUMMER1.7 melanomas; combination with ICB (anti-PD-1 + anti-CTLA-4), compared to untreated or beta-blocker alone): significantly smaller
- cytokine production by CD8+ T cells (YUMMER1.7 melanomas): dramatically increased
- frequencies of IFNγ-, TNF- and GZMB-producing virus-specific CD8+ T cells (LCMV-clone 13; after gp33 stimulation for 6 h, d37 p.i., vs untreated): higher frequencies
- expansion of virus-specific CD8+ T cells that displayed features of TEXprog, at the expense of TEXeff and TEXterm (LCMV-clone 13; atenolol 0.5 mg/ml in drinking water throughout infection vs untreated, spleen, d37 p.i.): greater expansion
- amounts of CREM in virus-specific CD8+ T cells (LCMV-clone 13; [2]): lowered
- amounts of cAMP in virus-specific CD8+ T cells (LCMV-clone 13; [2]): lowered
- viral titers (LCMV-clone 13; serum of LCMV-clone 13-infected mice, vs untreated): lower viral titers
- block of the β2-adrenergic receptor (ADRB1 vs. ADRB2): to a lower degree

Compound: Cn1cc(C(F)(F)F)nc1-c1ccc(OCC(O)CNCCOc2ccc(O)c(C(N)=O)c2)cc1 (stereo not shown) [CGP 20712A]
- cytokine production by CD8+ T cells (YUMMER1.7 melanomas): significantly increased

Compound: NC[C@H](O)c1ccc(O)c(O)c1 [noradrenaline]
- CD8+ T cell cytokine production (ADRB1): impairs
- CD8+ T cell proliferation (ADRB1): impairs

Compound: CC(C)NCC(O)COc1cccc2ccccc12 (stereo not shown) [propranolol]
- T cell clusters 1 and 5 (TRM-like and exhausted CD8+ T cells) ([1]; combination treatment with ICB): enriched
- cytokine and chemokine production (Gzma, Tgfb1, Gzmb, Xcl1, Ccl3, Ccl4, Ifng, Prf1) of CD8+ T cells ([1]; combination treatment with ICB): enhanced
- signatures for T cell response, exhaustion and TRM ([1]; combination treatment with ICB): enriched
- upregulated genes in CD8+ T cells compared to the isotype control ([1]; propranolol and ICB therapy): 272 genes
- tumor cell proliferation (tumor expression of Ki67 relative to IgG, IHC) (PDAC tumors; beta-blocker alone vs IgG, PDAC tumors): does not directly affect tumor cell proliferation
- CD8+ T cells in the tumors (PDAC tumors; combination with ICB): increase
- production of IFNγ and GZMB (PDAC tumors; combination with ICB, after PMA/ionomycin stimulation): increased production
- expression of the activation/exhaustion markers PD-1 and TIM3 (PDAC tumors; combination with ICB, tumor CD8+ T cells): higher expression
- tumor growth (abdominal ultrasound volume and tumor mass) (PDAC tumors): significantly reduced

Compound: CNCC(O)c1ccc(O)c(O)c1 (stereo not shown) [adrenaline]
- CD8+ T cell cytokine production (ADRB1): impairs
- CD8+ T cell proliferation (ADRB1): impairs
